The values below come from patent publication US12006553B2, “Companion diagnostics for mitochondrial inhibitors” (priority 2017, dated 2024).

For assay [1], the system named is DoxyR-CSCs (Doxy-resistant (DoxyR)-MCF7 cells). The assay is described as follows: Sensitivity of Doxy-resistant CSCs to other metabolic therapies. The class given is cell-based. An excerpt:
One concern with doxycycline therapy is the potential for the development of drug-resistance in CSCs. To investigate this issue, the inventors developed and characterized the phenotypic behavior of Doxy-resistant (DoxyR)-MCF7 cells.

In the next assay the test system is cancer stem cells (CSCs). As to the kind of experiment: CSC propagation / 3D spheroid (mammosphere) formation on low-attachment plates. The conditions noted are these: for inhibition of CSC propagation / 3D spheroid formation (in words): anchorage-independent growth; for IC50: CSCs, read-out: IC-50 for inhibition of CSC propagation. The class given is cell-based. An excerpt: Because CSCs are relatively “rare”, little is known about their metabolic properties. […] Under such conditions, the majority (more than 90%) of “bulk” cancer cells die via apoptosis, while only the CSCs survive and propagate, ultimately resulting in the formation of 3D spheroid structures after about 5 days. Each 3D spheroid is clonally formed from a single CSC. For breast CSCs, these 3D spheroids are also known as tumor-spheres or mammospheres. The generation of these 3D spheroids is thought to mimic the process of tumor formation and/or metastasis, thus providing a model for drug discovery and functional validation.

In assay [2] the test system is HMGR (3-hydroxy-3-methylglutaryl-CoA-reductase). The assay is described as follows: Inhibition of mevalonate metabolism. The conditions noted are these: statin-like.

Structures are written as SMILES.

As to `O=C1O[C@H]([C@@H](O)CO)C(O)=C1O` [Vitamin C], the “sensitivity of DoxyR-CSCs to the drug” value in assay [1] is recorded as “sensitive”. On to `CC[C@H]1/C=C/C=C/C[C@@H](C)[C@H](O)[C@@](C)(O)C(=O)[C@@H](C)[C@H](O)[C@@H](C)C(=O)[C@@H](C)[C@H](O)[C@@H](C)/C=C/C(=O)O[C@@H]2[C@H](C)[C@H](CC1)O[C@]1(CC[C@H](C)[C@H](C[C@@H](C)O)O1)[C@H]2C` [oligomycin], for which the “inhibition of CSC propagation / 3D spheroid formation (in words)” value with cancer stem cells (CSCs) is given as “effectively blocked”. As for `CCc1c2c(nc3ccc(OC(=O)N4CCC(N5CCCCC5)CC4)cc13)-c1cc3c(c(=O)n1C2)COC(=O)[C@]3(O)CC` [Irinotecan], the “sensitivity of DoxyR-CSCs to the drug” value in assay [1] was “sensitive”. Same read-out and setting: in the case of `O=C(Nc1ccc([N+](=O)[O-])cc1Cl)c1cc(Cl)ccc1O` [Niclosamide] it was “sensitive”.

Take `CC(=O)c1c(C)c2cnc(Nc3ccc(N4CCNCC4)cn3)nc2n(C2CCCC2)c1=O` [Palbociclib]: in the assay with cancer stem cells (CSCs), the IC50 was around 100 nM. For `[Cl-].c1ccc2c(c1)[I+]c1ccccc1-2` [DPI, diphenyleneiodium chloride], the IC50 in the assay with cancer stem cells (CSCs) was around 3 nM. The “potency for targeting CSCs relative to Palbociclib” value with cancer stem cells (CSCs) (versus Palbociclib) was “approximately 30 times”. In the case of `C[C@@H]1O[C@@H](O[C@@H]2[C@@H](Oc3cc(O)c4c(c3)O[C@H](c3ccc(O)cc3)CC4=O)O[C@@H](COC(=O)C[C@@](C)(O)CC(=O)O)[C@H](O)[C@H]2O)[C@@H](O)[C@H](O)[C@H]1O` [melitidin], in assay [2], the “inhibition of mevalonate metabolism” value is on record as “inhibit”. For the same molecule, the “inhibition of CSC propagation / 3D spheroid formation (in words)” value in the assay on cancer stem cells (CSCs) is listed as “inhibit”.

With `CNC(=O)c1cc(Oc2ccc(NC(=O)Nc3ccc(Cl)c(C(F)(F)F)c3)cc2)ccn1` [Sorafenib], the “sensitivity of DoxyR-CSCs to the drug” value in assay [1] is “sensitive”.

On to `CCN(CC)CCCC(C)Nc1ccnc2cc(Cl)ccc12` (centres unmarked) [Chloroquine], for which the “sensitivity of DoxyR-CSCs to the drug” value in assay [1] is reported as “sensitive”. In the case of `COc1ccc([C@@H]2CC(=O)c3c(O)cc(O[C@@H]4O[C@H](COC(=O)CC(C)(O)CC(=O)O)[C@@H](O)[C@H](O)[C@H]4O[C@@H]4O[C@@H](C)[C@H](O)[C@@H](O)[C@H]4O)cc3O2)cc1O` (some centres unmarked) [brutieridin], the “inhibition of mevalonate metabolism” value in assay [2] was “inhibit”. The “inhibition of CSC propagation / 3D spheroid formation (in words)” value in the assay on cancer stem cells (CSCs) is “inhibit”. Regarding `CC(C)(C)C(O)/C=C/c1ccc2c(c1)OCO2` (centres unmarked) [Stiripentol], the “sensitivity of DoxyR-CSCs to the drug” value in assay [1] was “sensitive”.
